Each compound was assayed on Adult houseflies (assay: Housefly knock-down test, oil solution sprayed in cubic chamber (Test Example 1)). Details: 0.7 ml of 0.00625% oil solution sprayed into 70 cm cubic chamber; adult houseflies (5 males and 5 females); counted up to 10 minutes after spraying.
Format: in vivo, houseflies (Musca domestica)
Method: A solution of 0.00625 part of the present compound (1) in 10 parts of dichloromethane was mixed with 89.99375 parts of deodorized kerosene to obtain a 0.00625% oil solution.
Adult houseflies (5 males and 5 females) were left in a cubic chamber (70 cm at each side). Into the chamber, 0.7 ml of 0.00625% oil solution of the present compound (1) prepared above was sprayed with a spray gun at a pressure of 8.8×10^4 Pa from a small window on the side of the chamber. Then, up to 10 minutes after spraying, the number of knocked-down insects was counted with time. From the results, a time required for knocking down 90% of the tested insects (KT90) was calculated.
In addition, the same test was carried out that 4-propargyl-2,3,5,6-tetrafluorobenzyl (1R)-trans-3-(2-methyl-1-propenyl)-2,2-dimethylcyclopropanecarboxylate represented by the formula: […]
(hereinafter, referred to as the comparative compound (A)), which is the compound described in JP-A 61-207361, was used as a comparative compound (repeated twice).

| SMILES | KT90 (time required for knocking down 90% of the tested insects) [min] |
| --- | --- |
| C#CCc1c(F)c(F)c(COC(=O)C2C(/C=C(\C#N)C(=O)OC(C)C)C2(C)C)c(F)c1F (stereo not shown) | 5.1 |
| C#CCc1c(F)c(F)c(COC(=O)C2C(/C=C(\C#N)C(=O)OC)C2(C)C)c(F)c1F (stereo not shown) | 2.6 |
| C#CCc1c(F)c(F)c(COC(=O)C2C(/C=C(\C#N)C(=O)OCC)C2(C)C)c(F)c1F (stereo not shown) | 2.0 |
| C#CCc1c(F)c(F)c(COC(=O)[C@@H]2[C@@H](C=C(C)C)C2(C)C)c(F)c1F [Comparative compound (A), 4-propargyl-2,3,5,6-tetrafluorobenzyl (1R)-trans-3-(2-methyl-1-propenyl)-2,2-dimethylcyclopropanecarboxylate, reference compound] | >10 |

Source: patent US20090143465A1 (SUMITOMO CHEMICAL COMPANY, LIMITED, priority 2006, published 2009)
